From PubChem BioAssay (NCI)
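Test compounds were applied to cells in 96-well plates for 48 hours at 5 doses. GI50 = concentration required for 50% inhibition of growth. The concentration for full growth arrest is given as TGI.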

How the values were obtained:
Test in all cases: NCI-60 cell line screen, 48 h
[1] = tested on: 786-0 renal
[2] = tested on: A498 renal
[3] = tested on: ACHN renal
[4] = tested on: BT-549 breast
[5] = tested on: CAKI-1 renal
[6] = tested on: CCRF-CEM leukemia
[7] = tested on: DU-145 prostate
[8] = tested on: EKVX NSCLC
[9] = tested on: HCC-2998 colon
[10] = tested on: HCT-116 colon
[11] = tested on: HCT-15 colon
[12] = tested on: HOP-62 NSCLC
[13] = tested on: HOP-92 NSCLC
[14] = tested on: HS 578T breast
[15] = tested on: IGROV1 ovarian
[16] = tested on: K-562 leukemia
[17] = tested on: KM12 colon
[18] = tested on: LOX IMVI melanoma
[19] = tested on: M14 melanoma
[20] = tested on: MALME-3M melanoma
[21] = tested on: MCF7 breast
[22] = tested on: MDA-MB-231 breast
[23] = tested on: MDA-MB-435
[24] = tested on: MOLT-4 leukemia
[25] = tested on: NCI-H226 lung
[26] = tested on: NCI-H460 lung
[27] = tested on: NCI-H522 lung
[28] = tested on: NCI/ADR-RES ovarian
[29] = tested on: OVCAR-4 ovarian
[30] = tested on: OVCAR-5 ovarian
[31] = tested on: OVCAR-8 ovarian
[32] = tested on: PC-3 prostate
[33] = tested on: RPMI-8226 leukemia
[34] = tested on: RXF 393 renal
[35] = tested on: SF-268 CNS
[36] = tested on: SF-295 CNS
[37] = tested on: SF-539 CNS
[38] = tested on: SK-MEL-2 melanoma
[39] = tested on: SK-OV-3 ovarian
[40] = tested on: SN12C renal
[41] = tested on: SNB-19 CNS
[42] = tested on: SNB-75 CNS
[43] = tested on: SR leukemia
[44] = tested on: SW-620 colon
[45] = tested on: T-47D breast
[46] = tested on: TK-10 renal
[47] = tested on: U251 CNS
[48] = tested on: UACC-257 melanoma
[49] = tested on: UACC-62 melanoma
[50] = tested on: UO-31 renal

N#C/C(=C\c1ccc(-c2ccc(F)cc2)o1)C(=O)Nc1ncc(Cc2ccc(Cl)cc2Cl)s1
GI50 [1]: 2.69 µM
TGI [1]: 10 µM
GI50 [2]: 3.03 µM
TGI [2]: 22 µM
GI50 [3]: 3.52 µM
TGI [3]: 13.9 µM
GI50 [4]: 1.98 µM
TGI [4]: 4.65 µM
GI50 [5]: 3.05 µM
TGI [5]: 16.7 µM
GI50 [6]: 4.23 µM
TGI [6]: > 100 µM
GI50 [7]: 4.19 µM
TGI [7]: > 100 µM
GI50 [8]: 2.32 µM
TGI [8]: 6.88 µM
GI50 [9]: 3.36 µM
TGI [9]: > 100 µM
GI50 [10]: 2.9 µM
TGI [10]: 10.9 µM
GI50 [11]: 2.38 µM
TGI [11]: > 100 µM
GI50 [12]: 3.71 µM
TGI [12]: 16.8 µM
GI50 [13]: 2.17 µM
TGI [13]: 9.16 µM
GI50 [14]: 3.19 µM
TGI [14]: 27.9 µM
GI50 [15]: 2.47 µM
TGI [15]: 7.54 µM
GI50 [16]: 3.48 µM
TGI [16]: > 100 µM
GI50 [17]: > 100 µM
TGI [17]: > 100 µM
GI50 [18]: 1.64 µM
TGI [18]: 3.43 µM
GI50 [19]: 2.91 µM
TGI [19]: 23.6 µM
GI50 [20]: 2.87 µM
TGI [20]: 9.18 µM
GI50 [21]: 2.21 µM
TGI [21]: 8.67 µM
GI50 [22]: 3.67 µM
TGI [22]: 32.2 µM
GI50 [23]: 2.95 µM
TGI [23]: > 100 µM
GI50 [24]: 5.24 µM
TGI [24]: > 100 µM
GI50 [25]: 2.83 µM
TGI [25]: 8.52 µM
GI50 [26]: 1.76 µM
TGI [26]: 3.64 µM
GI50 [27]: 3.49 µM
TGI [27]: 34.6 µM
GI50 [28]: 3.55 µM
TGI [28]: > 100 µM
GI50 [29]: 2.99 µM
TGI [29]: 9.23 µM
GI50 [30]: 4.06 µM
TGI [30]: > 100 µM
GI50 [31]: 2.94 µM
TGI [31]: 16.7 µM
GI50 [32]: 2.19 µM
TGI [32]: 6.04 µM
GI50 [33]: 4.33 µM
TGI [33]: > 100 µM
GI50 [34]: 2.28 µM
TGI [34]: 5.78 µM
GI50 [35]: 3.15 µM
TGI [35]: 22.6 µM
GI50 [36]: 1.92 µM
TGI [36]: 4.27 µM
GI50 [37]: 2.95 µM
TGI [37]: 8.8 µM
GI50 [38]: 2.91 µM
TGI [38]: 16 µM
GI50 [39]: 8.63 µM
TGI [39]: 34.9 µM
GI50 [40]: 2.48 µM
TGI [40]: 8.64 µM
GI50 [41]: 4.63 µM
TGI [41]: 29.5 µM
GI50 [42]: 6.2 µM
TGI [42]: 28.4 µM
GI50 [43]: 0.778 µM
TGI [43]: 12.2 µM
GI50 [44]: 1.79 µM
TGI [44]: 4.66 µM
GI50 [45]: 2.75 µM
TGI [45]: 29.8 µM
GI50 [46]: 9.27 µM
TGI [46]: 30 µM
GI50 [47]: 2.04 µM
TGI [47]: 4.11 µM
GI50 [48]: 4.23 µM
TGI [48]: > 100 µM
GI50 [49]: 3.71 µM
TGI [49]: > 100 µM
GI50 [50]: 5 µM
TGI [50]: > 100 µM
